# Source: patent publication US8058417B2, “Biosynthetic pathway and genes required for tropodithietic acid biosynthesis in silicibacter TM1040” (priority 2006, dated 2011)
# How the values were obtained:
# [1] = tested on: Methicillin-resistant Staphylococcus aureus (MRSA) strain USA300; assay: Minimal Inhibitory Concentration (MIC) of TDA against MRSA; format: cell-based
# Description: Against Methicillin-resistant Staphylococcus aureus (MRSA) strain USA300
# [2] = tested on: Mycobacterium tuberculosis strain H37Rv; assay: Minimal Inhibitory Concentration (MIC) of TDA against Mycobacterium tuberculosis; format: cell-based
# Description: Against Mycobacterium tuberculosis strain H37Rv
# V. anguillarium [3] = assay: Swimming (motility) of V. anguillarium exposed to TDA; format: cell-based, Vibrio anguillarium; settings: exposed to 5 ug TDA per ml (ca. 3x MIC)
# Description: It is unlikely that the mechanism of action of TDS involves inhibition of protein, DNA or RNA synthesis, transcription, or translation, all of which would require more time to inhibit.
# Vibrio anguillarium = assay: Minimal Inhibitory Concentration (MIC) of TDA against Vibrio anguillarium; format: cell-based; settings: FIG. 12
# Description: FIG. 12 is a graph showing the efficacy of TDA against Vibrio anguillarum, as described in Example 10.
# V. anguillarium [4] = assay: Regrowth of V. anguillarium in fresh nutrient broth after TDA exposure (bactericidal test); format: cell-based, Vibrio anguillarium; settings: 5 ug per ml (3x MIC) for 90 minutes, FIG. 13
# Description: FIG. 13 is a graph showing the bactericidal character of TDA against Vibrio anguillarum, illustrating the results using control (squares; buffer only), control 0.001 (circles), TDA (triangles), and TDA 0.001 (inverted triangles), as described in Example 10. V. anguillarium was exposed to 5 ug TDS per ml (3× MIC) for 90 minutes, after which the cells were washed and suspended in fresh nutrient broth. […] The results, as set forth in the graph of FIG. 13 indicate that the activity of TDA is bactericidal for this bacterial species, not simply bacteristatic.
smiles,measurement,setting,value
"O=C(O)c1c(=O)cccc2ssc12 [TDA, tropodithietic acid]",MIC,[1],40 mg/L
same,Result in words: killing of MRSA,[1],kills
same,Result in words: killing of M. tuberculosis,[2],kills
same,MIC,[2]; M. tuberculosis strain H37Rv,7.8 mg/L
same,Time until V. anguillarium stopped swimming,V. anguillarium [3],≤ 70 s
same,MIC,Vibrio anguillarium,1.5 mg/L
same,Result in words: killing of V. anguillarium,Vibrio anguillarium,kills
same,Character of activity (bactericidal vs bacteristatic),V. anguillarium [4],bactericidal
same,Growth of exposed cells after washing and suspension in fresh nutrient broth,V. anguillarium [4]; control cells exposed to buffer grew normally,failed to grow
